Fold induction data for 27 molecules are collected here from patent US10766869B2, “Triazoles for the treatment of demyelinating dieases” (Vertex Pharmaceuticals Incorporated, priority 2015, dated 2020).

This assay deals with primary rat mixed cortical cells. Nature of the assay: In vitro myelination assay (MBP positive myelin strands, fold myelin pixels above background). Format: cell-based. As to conditions: Rattus norvegicus, read-out: Fold myelin pixels above background relative to baseline of no added compound; for fold induction at 1 µM: 1.0 μM compound; for fold induction at 10 µM: 10.0 μM compound. An outline of the steps: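 P1 rat mixed cortical cultures (neurons, OPCs, oligodendrocytes, astrocytes, microglia) grown 14 days at 37 °C with compound, half-medium refreshed with compound on days 6 and 10. Fixed cells stained for MBP; MBP-positive myelin strand pixels per well quantified by automated imaging, reported as fold over no-compound baseline at 1.0 and 10.0 μM.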

As to `Cc1cc(NCC(C)N2CC(C)OC(C)C2)cc(Nc2ncn(-c3cc(F)cc(F)c3)n2)c1` (stereo not drawn) [Compound 882, N1-[1-(3,5-difluorophenyl)-1,2,4-triazol-3-yl]-N3-[2-(2,6-dimethylmorpholin-4-yl)propyl]-5-methyl-benzene-1,3-diamine], the fold induction at 1 µM was 1 to 10 and the fold induction at 10 µM lay within 1 to 10.
With `[2H]C1([2H])N(C(=O)C2CC2)C([2H])([2H])C([2H])([2H])N(c2cc(Nc3ncn(-c4cc(F)cc(F)c4)n3)cc(C(F)(F)F)c2)C1([2H])[2H]` [Compound 883, cyclopropyl-[2,2,3,3,5,5,6,6-octadeuterio-4-[3-[[1-(3,5-difluorophenyl)-1,2,4-triazol-3-yl]amino]-5-(trifluoromethyl)phenyl]piperazin-1-yl]methanone], the fold induction at 1 µM was 10 to 100 and the fold induction at 10 µM was 1 to 10.
On to `Cc1cc(Nc2ncn(-c3cc(F)cc(F)c3)n2)cc(NC2CCOCC2N2CCCC2)c1` (stereo not drawn) [Compound 884, N3-[1-(3,5-difluorophenyl)-1,2,4-triazol-3-yl]-5-methyl-N1-(3-pyrrolidin-1-yltetrahydropyran-4-yl)benzene-1,3-diamine], for which the fold induction at 1 µM was 1 to 10 and the fold induction at 10 µM is at most 1.
For `[2H]C1([2H])N(CC2COCCO2)C([2H])([2H])C([2H])([2H])N(c2cc(C)cc(Nc3ncn(-c4cc(F)cc(F)c4)n3)c2)C1([2H])[2H]` (stereo not drawn) [Compound 885, 1-(3,5-difluorophenyl)-N-[3-methyl-5-[2,2,3,3,5,5,6,6-octadeuterio-4-(1,4-dioxan-2-ylmethyl)piperazin-1-yl]phenyl]-1,2,4-triazol-3-amine] the same measures were 10 to 100 and at most 1.
For `Cc1cc(Nc2ncn(-c3cc(F)cc(F)c3)n2)cc(NC2(C(=O)N(C)C)CCC2)c1` [Compound 887, 1-[3-[[1-(3,5-difluorophenyl)-1,2,4-triazol-3-yl]amino]-5-methyl-anilino]-N,N-dimethyl-cyclobutanecarboxamide] the same measures were 10 to 100 and 10 to 100.
The corresponding values for `Cc1cc(Nc2ncn(-c3cc(F)cc(F)c3)n2)cc(N2CCOC(C3CCCO3)C2)c1` (stereo not drawn) [Compound 888, 1-(3,5-difluorophenyl)-N-[3-methyl-5-(2-tetrahydrofuran-2-ylmorpholin-4-yl)phenyl]-1,2,4-triazol-3-amine] are 1 to 10 and 1 to 10.
Regarding `Cc1cc(Nc2ncn(-c3cc(F)cc(F)c3)n2)cc(N2CCN3CCC2C3)c1` (stereo not drawn) [Compound 889, N-[3-(1,4-diazabicyclo[3.2.1]octan-4-yl)-5-methyl-phenyl]-1-(3,5-difluorophenyl)-1,2,4-triazol-3-amine], the fold induction at 1 µM lay in the range of 10 to 100 and the fold induction at 10 µM was at most 1.
The corresponding values for `Cc1cc(Nc2ncn(-c3cc(F)cc(F)c3)n2)cc(N2CC(C3CCOC3)C2)c1` (stereo not drawn) [Compound 890, 1-(3,5-difluorophenyl)-N-[3-methyl-5-(3-tetrahydrofuran-3-ylazetidin-1-yl)phenyl]-1,2,4-triazol-3-amine] are 1 to 10 and 10 to 100.
The corresponding values for `Cc1cc(Nc2ncn(-c3cc(F)cc(F)c3)n2)cc(NC2CCN(CC3CCCO3)CC2)c1` (stereo not drawn) [Compound 891, N3-[1-(3,5-difluorophenyl)-1,2,4-triazol-3-yl]-5-methyl-N1-[1-(tetrahydrofuran-2-ylmethyl)-4-piperidyl]benzene-1,3-diamine] are 1 to 10 and at most 1.
The corresponding values for `Cc1cc(Nc2ncn(-c3cc(F)cc(F)c3)n2)cc(N2CCN(C3CCCN(C)C3)CC2)c1` (stereo not drawn) [Compound 892, 1-(3,5-difluorophenyl)-N-[3-methyl-5-[4-(1-methyl-3-piperidyl)piperazin-1-yl]phenyl]-1,2,4-triazol-3-amine] are 1 to 10 and at most 1.
Consider `CCN1CCOC(CNc2cc(C)cc(Nc3ncn(-c4cc(F)cc(F)c4)n3)c2)C1` (stereo not drawn) [Compound 893, N3-[1-(3,5-difluorophenyl)-1,2,4-triazol-3-yl]-N1-[(4-ethylmorpholin-2-yl)methyl]-5-methyl-benzene-1,3-diamine], for which the fold induction at 1 µM fell in the range of 1 to 10 and the fold induction at 10 µM was at most 1.
For `COCCN1CCC(Nc2cc(C)cc(Nc3ncn(-c4cc(F)cc(F)c4)n3)c2)C1` (stereo not drawn) [Compound 894, N3-[1-(3,5-difluorophenyl)-1,2,4-triazol-3-yl]-N1-[1-(2-methoxyethyl)pyrrolidin-3-yl]-5-methyl-benzene-1,3-diamine] the same measures were 10 to 100 and at most 1.
The corresponding values for `Cc1cc(NCC2CCCC2N2CCOCC2)cc(Nc2ncn(-c3cc(F)cc(F)c3)n2)c1` (stereo not drawn) [Compound 895, N1-[1-(3,5-difluorophenyl)-1,2,4-triazol-3-yl]-5-methyl-N3-[(2-morpholinocyclopentyl)methyl]benzene-1,3-diamine] are 10 to 100 and 1 to 10.
The corresponding values for `COCCCN1CCCN(c2cc(C)cc(Nc3ncn(-c4cc(F)cc(F)c4)n3)c2)CC1` [Compound 896, 1-(3,5-difluorophenyl)-N-[3-[4-(3-methoxypropyl)-1,4-diazepan-1-yl]-5-methyl-phenyl]-1,2,4-triazol-3-amine] are 1 to 10 and 1 to 10.
As for `CCN1CCCC(Nc2cc(C)cc(Nc3ncn(-c4cc(F)cc(F)c4)n3)c2)C1` (stereo not drawn) [Compound 897, N3-[1-(3,5-difluorophenyl)-1,2,4-triazol-3-yl]-N1-(1-ethyl-3-piperidyl)-5-methyl-benzene-1,3-diamine], the fold induction at 1 µM was 1 to 10 and the fold induction at 10 µM was at most 1.
The corresponding values for `[2H]C1(N2CCN(c3cc(C)cc(Nc4ncn(-c5ccccc5)n4)c3)CC2)COC1` [Compound 898, N-[3-[4-(3-deuteriooxetan-3-yl)piperazin-1-yl]-5-methyl-phenyl]-1-phenyl-1,2,4-triazol-3-amine] are 10 to 100 and at most 1.
The corresponding values for `Cc1cc(NCC(N2CCOCC2)C(F)(F)F)cc(Nc2ncn(-c3cc(F)cc(F)c3)n2)c1` (stereo not drawn) [Compound 899, N1-[1-(3,5-difluorophenyl)-1,2,4-triazol-3-yl]-5-methyl-N3-(3,3,3-trifluoro-2-morpholino-propyl)benzene-1,3-diamine] are 1 to 10 and 1 to 10.
For `CCOCC(O)CN1CCN(c2cc(C)cc(Nc3ncn(-c4cc(F)cc(F)c4)n3)c2)CC1` (stereo not drawn) [Compound 900, 1-[4-[3-[[1-(3,5-difluorophenyl)-1,2,4-triazol-3-yl]amino]-5-methyl-phenyl]piperazin-1-yl]-3-ethoxy-propan-2-ol] the same measures were 1 to 10 and at most 1.
Turning to `Cc1cc(Nc2ncn(-c3cc(F)cc(F)c3)n2)cc(N2CCC3(CCO3)C2)c1` (stereo not drawn) [Compound 901, 1-(3,5-difluorophenyl)-N-[3-methyl-5-(1-oxa-7-azaspiro[3.4]octan-7-yl)phenyl]-1,2,4-triazol-3-amine], the fold induction at 1 µM was 1 to 10 and the fold induction at 10 µM is at most 1.
The corresponding values for `Cc1cc(Nc2ncn(-c3cc(F)cc(F)c3)n2)cc(N2CCN(CCO)C(C)C2)c1` (stereo not drawn) [Compound 902, 2-[4-[3-[[1-(3,5-difluorophenyl)-1,2,4-triazol-3-yl]amino]-5-methyl-phenyl]-2-methyl-piperazin-1-yl]ethanol] are 1 to 10 and at most 1.
The corresponding values for `Cc1cc(NCC2CN(CC(C)C)CCO2)cc(Nc2ncn(-c3cc(F)cc(F)c3)n2)c1` (stereo not drawn) [Compound 903, N1-[1-(3,5-difluorophenyl)-1,2,4-triazol-3-yl]-N3-[(4-isobutylmorpholin-2-yl)methyl]-5-methyl-benzene-1,3-diamine] are 10 to 100 and 1 to 10.
The corresponding values for `CCC(CO)N1CCN(c2cc(C)cc(Nc3ncn(-c4cc(F)cc(F)c4)n3)c2)CC1` (stereo not drawn) [Compound 904, 2-[4-[3-[[1-(3,5-difluorophenyl)-1,2,4-triazol-3-yl]amino]-5-methyl-phenyl]piperazin-1-yl]butan-1-ol] are at most 1 and at most 1.
As to `Cc1cc(Nc2ncn(-c3cc(F)cc(F)c3)n2)cc(N2CCN(C3CCCC3)C(=O)C2)c1` [Compound 905, 1-cyclopentyl-4-[3-[[1-(3,5-difluorophenyl)-1,2,4-triazol-3-yl]amino]-5-methyl-phenyl]piperazin-2-one], the fold induction at 1 µM lay in the range of 1 to 10 and the fold induction at 10 µM was in the range of 10 to 100.
As for `Cc1cc(Nc2ncn(-c3cc(F)cc(F)c3)n2)cc(N2CCOC3(CCOCC3)CC2)c1` [Compound 906, 1-(3,5-difluorophenyl)-N-[3-(3,7-dioxa-10-azaspiro[5.6]dodecan-10-yl)-5-methyl-phenyl]-1,2,4-triazol-3-amine], the fold induction at 1 µM lay within 10 to 100 and the fold induction at 10 µM was 1 to 10.
The corresponding values for `Cc1cc(Nc2ncn(-c3ccccc3)n2)c(F)c(OC2CCOC2)c1` (stereo not drawn) [Compound 907, N-(2-fluoro-5-methyl-3-tetrahydrofuran-3-yloxy-phenyl)-1-phenyl-1,2,4-triazol-3-amine] are 10 to 100 and 100 to 1000.
The corresponding values for `Cc1cc(Nc2ncn(-c3ccccn3)n2)c(F)c(N2CCN(C3COC3)CC2)c1` [Compound 908, N-[2-fluoro-5-methyl-3-[4-(oxetan-3-yl)piperazin-1-yl]phenyl]-1-(2-pyridyl)-1,2,4-triazol-3-amine] are 1 to 10 and 10 to 100.
For `Cc1cc(OCC2COC2)cc(Nc2ncn(-c3cc(F)cc(F)c3)n2)c1C` [Compound 909, 1-(3,5-difluorophenyl)-N-[2,3-dimethyl-5-(oxetan-3-ylmethoxy)phenyl]-1,2,4-triazol-3-amine] the same measures were 1 to 10 and 10 to 100.
